# Laboratory results from patent US11702404B2, “GLP-1R modulating compounds” (priority 2019, dated 2023).
# Assays:
# [1] = target: GLP-1R (Homo sapiens, UniProt P43220); experiment: GLP-1R activation: cAMP increase in CHO cells stably expressing GLP-1R; assay type: cell-based; details: cAMP increase, CHO cells stably expressing GLP-1R, 10 point dose response, 30 minutes incubation; read-out: EC50
# [2] = Microsomal stability, human liver microsomes (predicted hepatic clearance); details: predicted from in vitro microsomal stability data
# Chain of GLP-1R (P43220 24-463): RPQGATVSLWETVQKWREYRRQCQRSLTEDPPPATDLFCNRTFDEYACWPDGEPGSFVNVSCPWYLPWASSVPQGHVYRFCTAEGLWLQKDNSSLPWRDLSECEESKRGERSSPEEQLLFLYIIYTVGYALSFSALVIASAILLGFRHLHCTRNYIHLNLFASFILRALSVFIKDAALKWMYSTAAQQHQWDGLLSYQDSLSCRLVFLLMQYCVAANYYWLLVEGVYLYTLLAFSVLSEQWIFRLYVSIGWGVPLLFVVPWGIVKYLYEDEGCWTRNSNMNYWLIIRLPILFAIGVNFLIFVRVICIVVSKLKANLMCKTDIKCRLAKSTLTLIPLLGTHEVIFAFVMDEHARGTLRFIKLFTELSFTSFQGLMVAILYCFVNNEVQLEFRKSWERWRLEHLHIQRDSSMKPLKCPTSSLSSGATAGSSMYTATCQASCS
Compound,EC50 [1],Predicted Hepatic Clearance (Pred. Cl.) [2]
"N#Cc1ccc(COc2cccc(-c3ccc(Cc4nc5ccc(C(=O)O)cc5n4CC4(n5ccnn5)CC4)cc3)n2)c(F)c1 [Example 461, 1-((1-(1H-1,2,3-triazol-1-yl)cyclopropyl)methyl)-2-(4-(6-((4-cyano-2-fluorobenzyl)oxy)pyridin-2-yl)benzyl)-1H-benzo[d]imidazole-6-carboxylic acid]",2.47 nM,7.17 mL/min/kg
"N#Cc1ccc(COc2cccc(-c3ccc(Cc4nc5c(F)cc(C(=O)O)cc5n4CC(O)CCO)c(F)c3)n2)c(F)c1 (stereo not drawn) [Example 468, 2-[[4-[6-[(4-cyano-2-fluoro-phenyl)methoxy]-2-pyridyl]-2-fluoro-phenyl]methyl]-3-(2,4-dihydroxybutyl)-7-fluoro-benzimidazole-5-carboxylic acid]",26.9 nM,2.17 mL/min/kg
"O=C(O)c1ccc2nc(Cc3ccc(-c4ccc(F)c(OCc5ccc(Cl)cc5F)c4)cc3F)n(CCO)c2c1 [Example 476, 2-[[4-[3-[(4-chloro-2-fluoro-phenyl)methoxy]-4-fluoro-phenyl]-2-fluoro-phenyl]methyl]-3-(2-hydroxyethyl)benzimidazole-5-carboxylic acid]",366 nM,2.17 mL/min/kg
"COCCn1c(Cc2ccc(-c3cccc(OCc4ccc(C(F)(F)F)cc4F)n3)cc2F)nc2ccc(C(=O)O)cc21 [Example 480, 2-[[2-fluoro-4-[6-[[2-fluoro-4-(trifluoromethyl)phenyl]methoxy]-2-pyridyl]phenyl]methyl]-3-(2-methoxyethyl)benzimidazole-5-carboxylic acid]",6.59 nM,<1.83 mL/min/kg

# Other lines, results leading:
EC50 [1],Predicted Hepatic Clearance (Pred. Cl.) [2],Compound
1.87 nM,3.83 mL/min/kg,"CCn1cncc1Cn1c(Cc2ccc(-c3ccc(F)c(OCc4ccc(Cl)cc4F)c3)cc2F)nc2ccc(C(=O)O)cc21 [Example 466, 2-((3′-((4-chloro-2-fluorobenzyl)oxy)-3,4′-difluoro-[1,1′-biphenyl]-4-yl)methyl)-1-((1-ethyl-1H-imidazol-5-yl)methyl)-1H-benzo[d]imidazole-6-carboxylic acid]"
1250 nM,<1.83 mL/min/kg,"COCCn1c(Cc2ccc(-c3cccc(OCc4cc(C(F)(F)F)ccc4OC)n3)cc2F)nc2ccc(C(=O)O)cc21 [Example 470, 2-(2-fluoro-4-(6-((2-methoxy-5-(trifluoromethyl)benzyl)oxy)pyridin-2-yl)benzyl)-1-(2-methoxyethyl)-1H-benzo[d]imidazole-6-carboxylic acid]"
13.7 nM,4 mL/min/kg,"N#Cc1ccc(COc2cccc(-c3ccc(Cc4nc5c(F)cc(C(=O)O)cc5n4C[C@@H](O)CCO)cc3F)n2)c(F)c1 [Example 471, (S)-2-(4-(6-((4-cyano-2-fluorobenzyl)oxy)pyridin-2-yl)-3-fluorobenzyl)-1-(2,4-dihydroxybutyl)-4-fluoro-1H-benzo[d]imidazole-6-carboxylic]"
20.9 nM,<1.83 mL/min/kg,"COCCn1c(Cc2ccc(-c3ccc(F)c(OCc4ccc(Cl)cc4F)c3)cc2F)nc2ccc(C(=O)O)cc21 [Example 472, 2-((3′-((4-chloro-2-fluorobenzyl)oxy)-3,4′-difluoro-[1,1′-biphenyl]-4-yl)methyl)-1-(2-methoxyethyl)-1H-benzo[d]imidazole-6-carboxylic acid]"
9.19 nM,3.17 mL/min/kg,"COCCn1c(Cc2ccc(-c3cccc(OCc4ccc(Cl)cc4F)n3)cc2F)nc2ccc(C(=O)O)cc21 [Example 478, 2-(4-(6-((4-chloro-2-fluorobenzyl)oxy)pyridin-2-yl)-2-fluorobenzyl)-1-(2-methoxyethyl)-1H-benzo[d]imidazole-6-carboxylic acid]"
